System: ara-C metabolic pathway genes
Test: Association of ara-C pathway SNP genotypes with MRD1, EFS and OS in AML02 (logistic regression and Cox models; also within LDAC and HDAC arms)
Set-up: species or system human
Conditions: within arm of AML02
Text: Genomic DNA from patients enrolled in the multi-site St. Jude AML02 trial was genotyped for 155 SNPs in 16 genes of relevance to ara-C pharmacology using sequenom iPlex platform that uses MALDI-TOF based chemistry at University of Minnesota, Biomedical Genomics Center. SNPs were selected based on previously reported studies. For SNPs lacking literature on genetic variation, SNPs were selected to capture LD blocks (European and African ancestry) on a gene. Of 155 SNPs, 1 SNP was excluded due to low call rate (<90%), 47 SNPs were excluded due to minimum allele frequency of less than 5%, 11 SNPs were excluded due to high LD (r^2>0.9) with other SNPs; two SNPs were excluded because of deviation from Hardy-Weinberg equilibrium. Genotype for the COG-AAML0531 cohort for the selected SNPs was obtained using sequenom platform or TaqMan genotyping assays, and for a few SNPs was extracted from the data available on Illumina 2.5 Omni array. Genotype calls from multiple platforms were confirmed across multiple samples randomly collected from the cohort.
SNP genotype groups in three different modes of inheritance (additive, dominant, and recessive) were tested for association with MRD1 using logistic regression models. Odds ratio (OR) and 95% confidence interval (CI) were calculated for each test. SNPs with association P-value<0.05 were considered significant. Cox-proportional hazard models were used to evaluate association of genotype groups with EFS or OS. Hazard ratio (HR) and 95% CI were calculated for each test. p-value<0.05 was considered statistically significant. Given initial risk group assignments are well-established prognostic factors associated with outcome, outcome association analysis of SNPs with and without adjusting for risk group was also performed to identify SNPs that are associated with outcome independent of risk group.
SNPs with p<0.15 in risk-adjusted univariate evaluation with clinical endpoints (MRD1, EFS, and OS) were tested for all possible combinations with a maximum of three SNPs per model in multivariable logistic regression models for association with MRD1 and Cox-proportional hazard models for association with EFS and OS. Analysis for up to 3 SNP combinations was restricted due to computational challenges as increasing the maximum number of SNPs per model drastically increases the number of models as 1000 permutations were run for each model. Models were ordered according to their Bayesian Information Criterion (BIC) and weight in favor of each model. One thousand permutation tests were performed for each model to determine statistical significance. The six unique SNPs from the most significant models for EFS and MRD1 were included in the development of the ACS10 score as described in the results section.
The multicenter AML02 clinical trial randomly assigned subjects to receive low dose ara-C (LDAC: 100 mg/m^2; n=91 patients) or high dose ara-C(HDAC: 3 g/m^2; n=75 patients) in combination with daunorubicin and etoposide as the first course of chemotherapy as described above in patient cohort section. Thus, the association of SNPs with outcome within each arm separately was also explored (Table 5).

[1] = rs4917384 (NT5C2, WT C, VAR T), MOI D
[2] = rs4980345 (SLC28A1, WT G, VAR A), MOI A
[3] = rs6552622 (DCTD, WT C, VAR G), MOI D
[4] = rs6742272 (RRM2, WT C, VAR G), MOI A
[5] = rs6834938 (DCTD, WT C, VAR T), MOI R
[6] = rs6946062 (NT5C3, WT T, VAR C), MOI D
[7] = rs7533657 (CTPS1, WT C, VAR T), MOI R
[8] = rs7543016 (CMPK1, WT C, VAR G), MOI R
[9] = rs7776847 (NT5C3, WT G, VAR A), MOI A
[10] = rs7874528 (SLC28A3, WT G, VAR T), MOI D
[11] = rs10252880 (NT5C3, WT G, VAR C), MOI A
[12] = rs10767827 (RRM1, WT G, VAR T), MOI D
[13] = rs10786736 (NT5C2, WT G, VAR C), MOI D
[14] = rs10916819 (CDA, WT A, VAR G), MOI D
[15] = rs11140525 (SLC28A3, WT G, VAR A), MOI A
[16] = rs11191558 (NT5C2, WT G, VAR A), MOI D
[17] = rs11737887 (DCTD, WT T, VAR C), MOI A
[18] = rs12554292 (SLC28A3, WT C, VAR T), MOI D
[19] = rs12806698 (RRM1, WT C, VAR A), MOI D
[20] = rs17103168 (CMPK1, WT A, VAR G), MOI D

SMILES: Nc1ccn([C@@H]2O[C@H](CO)[C@@H](O)[C@@H]2O)c(=O)n1 [LDAC, cytarabine]
- EFS HR (95% CI) [1]: 1.04 (0.76-1.44)
- MRD1 OR (95% CI) [1]: 0.78 (0.51-1.19)
- OS HR (95% CI) [1]: 0.87 (0.58-1.29)
- EFS HR (95% CI) [2]: 1.81 (1-3.26)
- MRD1 OR (95% CI) [2]: 1.08 (0.45-2.58)
- OS HR (95% CI) [2]: 1.84 (0.95-3.55)
- EFS HR (95% CI) [3]: 1.05 (0.7-1.59)
- MRD1 OR (95% CI) [3]: 0.86 (0.49-1.49)
- OS HR (95% CI) [3]: 1.22 (0.77-1.94)
- EFS HR (95% CI) [4]: 1.5 (0.95-2.36)
- MRD1 OR (95% CI) [4]: 0.49 (0.25-0.96)
- OS HR (95% CI) [4]: 1.43 (0.83-2.48)
- EFS HR (95% CI) [5]: 1.4 (0.83-2.35)
- MRD1 OR (95% CI) [5]: 1.92 (0.82-4.48)
- OS HR (95% CI) [5]: 1.75 (1.02-3)
- EFS HR (95% CI) [6]: 0.75 (0.54-1.04)
- MRD1 OR (95% CI) [6]: 0.94 (0.61-1.46)
- OS HR (95% CI) [6]: 0.58 (0.39-0.87)
- EFS HR (95% CI) [7]: 1.12 (0.62-2.02)
- MRD1 OR (95% CI) [7]: 0.9 (0.36-2.27)
- OS HR (95% CI) [7]: 1.05 (0.51-2.16)
- EFS HR (95% CI) [8]: 0.85 (0.55-1.32)
- MRD1 OR (95% CI) [8]: 2.01 (1.13-3.58)
- OS HR (95% CI) [8]: 0.67 (0.37-1.23)
- EFS HR (95% CI) [9]: 1.15 (0.64-2.09)
- MRD1 OR (95% CI) [9]: 0.92 (0.42-2)
- OS HR (95% CI) [9]: 1.91 (1.01-3.62)
- EFS HR (95% CI) [10]: 0.97 (0.66-1.44)
- MRD1 OR (95% CI) [10]: 1.93 (1.12-3.32)
- OS HR (95% CI) [10]: 0.89 (0.54-1.45)
- EFS HR (95% CI) [11]: 1.21 (0.74-1.98)
- MRD1 OR (95% CI) [11]: 0.97 (0.51-1.82)
- OS HR (95% CI) [11]: 1.98 (1.13-3.44)
- EFS HR (95% CI) [12]: 1.09 (0.76-1.57)
- MRD1 OR (95% CI) [12]: 0.98 (0.6-1.61)
- OS HR (95% CI) [12]: 0.97 (0.61-1.53)
- EFS HR (95% CI) [13]: 1.45 (1.03-2.03)
- MRD1 OR (95% CI) [13]: 1.1 (0.66-1.83)
- OS HR (95% CI) [13]: 1.37 (0.9-2.08)
- EFS HR (95% CI) [14]: 1.77 (1.14-2.75)
- MRD1 OR (95% CI) [14]: 1.75 (1.08-2.83)
- OS HR (95% CI) [14]: 2.05 (1.12-3.74)
- EFS HR (95% CI) [15]: 0.98 (0.63-1.54)
- MRD1 OR (95% CI) [15]: 1.44 (0.81-2.58)
- OS HR (95% CI) [15]: 1.16 (0.68-1.97)
- EFS HR (95% CI) [16]: 1.49 (1.05-2.1)
- MRD1 OR (95% CI) [16]: 0.96 (0.56-1.64)
- OS HR (95% CI) [16]: 1.32 (0.85-2.05)
- EFS HR (95% CI) [17]: 1.39 (0.73-2.66)
- MRD1 OR (95% CI) [17]: 0.95 (0.4-2.25)
- OS HR (95% CI) [17]: 1.76 (0.8-3.86)
- EFS HR (95% CI) [18]: 0.71 (0.42-1.2)
- MRD1 OR (95% CI) [18]: 1.26 (0.72-2.21)
- OS HR (95% CI) [18]: 0.78 (0.43-1.42)
- EFS HR (95% CI) [19]: 0.98 (0.69-1.39)
- MRD1 OR (95% CI) [19]: 1.14 (0.72-1.8)
- OS HR (95% CI) [19]: 1.19 (0.79-1.79)
- EFS HR (95% CI) [20]: 0.96 (0.69-1.32)
- MRD1 OR (95% CI) [20]: 0.55 (0.35-0.87)
- OS HR (95% CI) [20]: 1.03 (0.69-1.52)

From US20240344145A1, “PHARMACOGENOMICS SCORE TO MAKE DECISIONS ON THERAPY AUGMENTATION IN AML” (University of Florida Research Foundation, Incorporated, priority 2021, published 2024)
